Results reported in patent US8669361B2, “Pyrazol-4-yl-heterocyclyl-carboxamide compounds and methods of use” (Genentech, Inc., priority 2010, dated 2014).

Tests used:
PIM1 = PIM1 (Homo sapiens (Human), UniProt P11309); test: Pim kinase binding activity, Caliper LC3000 microfluidic peptide phosphorylation assay (Example 901); assay type: biochemical; details: 20 pM PIM1, 1 μM FAM-peptide, 10 μM ATP, 90 minutes at room temperature; read-out: PIM1 LC3K (KI)
Procedure: (§1) PIM-1, -2, and -3 enzymes were generated as fusion proteins expressed in bacteria and purified by IMAC column chromatography (Sun, X., Chiu, J. F., and He, Q. Y. (2005) Expert Rev. Proteomics, 2:649-657). A fluorescent-labeled Pim-specific peptide substrate, was custom synthesized by American Peptide Company (Sunnyvale, Calif.). Reaction Buffer contained 10 mM HEPES, pH 7.2, 10 mM MgCl2, 0.01% Tween 20, 2 mM DTT. Termination Buffer contained 190 mM HEPES, pH 7.2, 0.015% Brij-35, 0.2% Coating Reagent 3 (Caliper Life Sciences, Hopkinton, Mass.), 20 mM EDTA. Separation Buffer contained 100 mM HEPES, pH 7.2, 0.015% Brij-35, 0.1% Coating Reagent 3, 1:200 Coating Reagent 8 (Caliper Life Sciences, Hopkinton, Mass.), 10 mM EDTA and 5% DMSO.
(§2) PIM reactions were carried out in a final volume of 10 μL per well in a 384-well plate. A standard enzymatic reaction, initiated by the addition of 5 μL 2×ATP and test compound to 5 μL of 2× enzyme and FAM-peptide, contained 20 pM PIM1, 50 pM PIM2, or 55 pM PIM3, 1 μM FAM-peptide, and 10 μM ATP, in Reaction Buffer. After 90 minutes of incubation at room temperature, the phosphorylation reaction was stopped by the addition of 10 μL Termination Buffer. The product and substrate in each independent reaction were separated on a 12-sipper microfluidic chip (Caliper Life Sciences, Hopkinton, Mass.) run on a Caliper LC3000® (Caliper Life Sciences, Hopkinton, Mass.). The separation of product and substrate was optimized by choosing voltages and pressure using Caliper's Optimizer software (Hopkinton, Mass.). The separation conditions used a downstream voltage of −500V, an upstream voltage of −2150V, and a screening pressure of −1.2 psi. The product and substrate fluorophore were excited at 488 nm and detected at 530 nm. Substrate conversion was calculated from the electropherogram using HTS Well Analyzer software (Caliper Life Sciences, Hopkinton, Mass.). Ki values for the test compound were calculated.

PIM3 = PIM3 (Homo sapiens (Human), UniProt Q86V86); test: as above; assay type: biochemical; details: 55 pM PIM3, 1 μM FAM-peptide, 10 μM ATP, 90 minutes at room temperature; read-out: PIM3 LC3K (KI)
Procedure: as §1, §2

PIM2 = PIM2 (Homo sapiens (Human), UniProt Q9P1W9); test: as above; assay type: biochemical; details: 50 pM PIM2, 1 μM FAM-peptide, 10 μM ATP, 90 minutes at room temperature; read-out: PIM2 LC3K (KI)
Chain of PIM2 (Q9P1W9 whole entry, the tested form may be a part): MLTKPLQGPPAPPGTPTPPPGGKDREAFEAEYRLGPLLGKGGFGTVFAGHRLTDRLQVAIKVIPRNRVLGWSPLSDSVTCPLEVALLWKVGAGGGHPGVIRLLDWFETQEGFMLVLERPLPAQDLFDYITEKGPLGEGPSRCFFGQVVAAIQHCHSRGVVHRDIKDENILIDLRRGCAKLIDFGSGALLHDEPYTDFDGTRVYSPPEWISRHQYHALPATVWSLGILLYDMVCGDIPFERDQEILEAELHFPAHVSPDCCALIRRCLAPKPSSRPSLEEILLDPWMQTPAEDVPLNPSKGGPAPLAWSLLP
Procedure: as §1, with “A” for “PIM-1, -2, and -3 enzymes were generated as fusion proteins expressed in bacteria and purified by IMAC column chromatography (Sun, X., Chiu, J. F., and He, Q. Y. (2005) Expert Rev. Proteomics, 2:649-657). A”
as §2, with “A standard enzymatic reaction, initiated by the addition of 5 μL 2×ATP and test compound to 5 μL of 2× enzyme and FAM-peptide, contained 20 pM PIM1, 50 pM PIM2, or 55 pM PIM3, 1 μM FAM-peptide, and 10 μM ATP, in Reaction Buffer.” left out, “The product and substrate fluorophore were excited at 488 nm and detected at 530 nm.” left out

BaF3 PIM1 cells = test: In vitro cell proliferation potency assay, Cell Titer Glo (Example 902); assay type: cell-based, murine; details: Mus musculus; BaF3 line transfected with PIM1, incubated overnight; read-out: Prolif BaF3 PIM1 (IC50)
Procedure: (§3) BaF3 parental line was obtained from the DSMZ repository. BaF3 lines transfected with PIM 1 or PIM2 were generated. Mouse IL-3 was purchased from R&D Systems. G418 was purchased from Clontech. Media for BaF3 parental line contained RPMI, 10% FBS, 2 mM L-Glutamine, 2 ng/mL mIL-3. Media for BaF3 PIM1 & 2 lines contained RPMI, 10% FBS, 2 mM L-Glutamine, […]. Media for MM1.S (multiple myeloma cells) line contained RPMI, 10% FBS, 2 mM L-Glutamine.
(§4) BaF3, a murine interleukin-3 dependent pro-B cell line, parental cells, BaF3 PIM1 cells, BaF3 PIM2 cells, and MM1.S (multiple myeloma) cells were seeded at 2 k/well, 5 k/well, 5 k/well, and 10 k/well respectively, in a 384-well plate, at 45 μL/well. Test compound was added at 5 μL/well. BaF3 cells (parental and transfected) were incubated overnight, while MM1.S cells were incubated for 72 hours at 37° C., 5% CO2. Cell Titer Glo Reagent (Promega) was added at 50 μL/well, the plates were incubated for 30 minutes, and their luminescence read on an HT Analyst. IC50/EC50 values for the test compound were calculated.

BaF3 parental cells = test: as above; assay type: cell-based, murine; details: Mus musculus; BaF3 parental line, medium with 2 ng/mL mIL-3, incubated overnight; read-out: Prolif BaF3 IL3 (IC50)
Procedure: as §3, §4

[1] = tested on: MM1.S (multiple myeloma) cells; test: as above; assay type: cell-based; details: Homo sapiens, incubated for 72 hours, read-out: Prolif MM1S ATP (EC50)
Procedure: as §3, §4

Chain of PIM1 (P11309 whole entry, the tested form may be a part): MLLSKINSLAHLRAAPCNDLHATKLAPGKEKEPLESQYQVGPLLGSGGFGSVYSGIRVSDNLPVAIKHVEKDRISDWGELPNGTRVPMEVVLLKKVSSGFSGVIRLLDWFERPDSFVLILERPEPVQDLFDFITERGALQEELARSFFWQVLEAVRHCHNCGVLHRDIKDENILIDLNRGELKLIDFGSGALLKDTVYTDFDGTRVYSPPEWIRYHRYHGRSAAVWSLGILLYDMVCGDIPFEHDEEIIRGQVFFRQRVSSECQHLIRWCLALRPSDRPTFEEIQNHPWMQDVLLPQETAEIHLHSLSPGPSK

Row | Compound | Ki (PIM1) | Ki (PIM3) | Ki (PIM2) | IC50 (BaF3 PIM1 cells) | IC50 (BaF3 parental cells) | EC50 [1]
1 | Nc1sc(-c2c(F)cccc2F)nc1C(=O)Nc1cn[nH]c1N1CCC[C@H](N)C1 [Example 103, (S)-5-amino-N-(5-(3-aminopiperidin-1-yl)-1H-pyrazol-4-yl)-2-(2,6-difluorophenyl)thiazole-4-carboxamide] | 6.5 nM | 4.89 nM | 55.1 nM | 7300 nM | 10.6 µM | 9.1 µM
2 | Cn1ncc(NC(=O)c2nc(-c3c(F)cccc3F)sc2N)c1N1CCC[C@H](N)C1 [Example 106, (S)-5-amino-N-(5-(3-aminopiperidin-1-yl)-1-methyl-1H-pyrazol-4-yl)-2-(2,6-difluorophenyl)thiazole-4-carboxamide] | – | – | – | 3800 nM | 6.6 µM | 4.2 µM
3 | Cn1ncc(NC(=O)c2nc(-c3c(F)cccc3F)sc2N)c1N1CCC(N)CC1 [Example 108, 5-amino-N-(5-(4-aminopiperidin-1-yl)-1-methyl-1H-pyrazol-4-yl)-2-(2,6-difluorophenyl)thiazole-4-carboxamide] | – | – | – | 615 nM | 4.3 µM | 8.2 µM
4 | Cn1ncc(NC(=O)c2nc(-c3ccccc3F)ccc2N)c1N1CCC(N)CC1 [Example 110, 3-amino-N-(5-(4-aminopiperidin-1-yl)-1-methyl-1H-pyrazol-4-yl)-6-(2-fluorophenyl)picolinamide] | – | – | – | 1500 nM | 12 µM | 16.1 µM
5 | Cn1ncc(NC(=O)c2nc(-c3ccccc3F)ccc2N)c1N1CCC[C@H](N)C1 [Example 111, (S)-3-amino-N-(5-(3-aminopiperidin-1-yl)-1-methyl-1H-pyrazol-4-yl)-6-(2-fluorophenyl)picolinamide] | – | – | – | 4200 nM | 13.2 µM | 7.1 µM
6 | Cn1ncc(NC(=O)c2nc(-c3ccccc3F)ccc2N)c1N1CCCC(N)CC1 (stereo not drawn) [Example 114, 3-amino-N-(5-(4-aminoazepan-1-yl)-1-methyl-1H-pyrazol-4-yl)-6-(2-fluorophenyl)picolinamide] | 0.115 nM | 0.159 nM | 1.65 nM | 2300 nM | 5.5 µM | –
7 | Cn1ncc(NC(=O)c2nc(-c3c(F)cccc3F)sc2N)c1OCC1CCNCC1 [Example 115, 5-amino-2-(2,6-difluorophenyl)-N-(1-methyl-5-(piperidin-4-ylmethoxy)-1H-pyrazol-4-yl)thiazole-4-carboxamide] | 1.14 nM | 1.08 nM | 46.1 nM | 4500 nM | 6.2 µM | –
8 | Cn1ncc(NC(=O)c2nc(-c3ccccc3F)cnc2N)c1N1CCC[C@H](N)C1 [Example 119, (S)-3-amino-N-(5-(3-aminopiperidin-1-yl)-1-methyl-1H-pyrazol-4-yl)-6-(2-fluorophenyl)pyrazine-2-carboxamide] | – | 0.305 nM | 2.13 nM | 1300 nM | 5.2 µM | –
9 | Cn1ncc(NC(=O)c2nc(-c3c(F)cccc3F)sc2N)c1OC1CCNCC1 [Example 120, 5-amino-2-(2,6-difluorophenyl)-N-(1-methyl-5-(piperidin-4-yloxy)-1H-pyrazol-4-yl)thiazole-4-carboxamide] | 1.97 nM | 1.1 nM | – | 7800 nM | 25 µM | –
10 | Cn1ncc(NC(=O)c2nc(-c3ccccc3F)cnc2N)c1N1CCC(N)CC1 [Example 122, 3-amino-N-(5-(4-aminopiperidin-1-yl)-1-methyl-1H-pyrazol-4-yl)-6-(2-fluorophenyl)pyrazine-2-carboxamide] | 0.281 nM | 0.962 nM | 14.7 nM | 1100 nM | 11.9 µM | –
11 | Cn1ncc(NC(=O)c2nc(-c3ccccc3F)ccc2N)c1N1CCC[C@H](CN)C1 [Example 129, (R)-3-amino-N-(5-(3-(aminomethyl)piperidin-1-yl)-1-methyl-1H-pyrazol-4-yl)-6-(2-fluorophenyl)picolinamide] | 0.343 nM | 1.33 nM | 10.2 nM | 5100 nM | 21.5 µM | –
12 | Cn1ncc(NC(=O)c2nc(-c3ccccc3F)ccc2N)c1N1CC[C@@H](CN)C1 [Example 134, (S)-3-amino-N-(5-(3-(aminomethyl)pyrrolidin-1-yl)-1-methyl-1H-pyrazol-4-yl)-6-(2-fluorophenyl)picolinamide] | – | – | – | 1400 nM | 7.8 µM | –
13 | Cn1ncc(NC(=O)c2nc(-c3c(F)cccc3F)sc2N)c1N1CC[C@H](CN)C1 [Example 135, (R)-5-amino-N-(5-(3-(aminomethyl)pyrrolidin-1-yl)-1-methyl-1H-pyrazol-4-yl)-2-(2,6-difluorophenyl)thiazole-4-carboxamide] | 0.506 nM | 0.344 nM | 10.6 nM | 660 nM | 9.3 µM | –
14 | Cn1ncc(NC(=O)c2nc(-c3ccccc3F)ccc2N)c1N1CC[C@H](CN)C1 [Example 136, (R)-3-amino-N-(5-(3-(aminomethyl)pyrrolidin-1-yl)-1-methyl-1H-pyrazol-4-yl)-6-(2-fluorophenyl)picolinamide] | – | – | – | 634 nM | 5.9 µM | –
15 | Cn1ncc(NC(=O)c2nc(-c3ccccc3F)cnc2N)c1N1CCC[C@@H](N)CC1 [Example 141, (R)-3-amino-N-(5-(4-aminoazepan-1-yl)-1-methyl-1H-pyrazol-4-yl)-6-(2-fluorophenyl)pyrazine-2-carboxamide] | – | 0.295 nM | 3.52 nM | 219 nM | 1.1 µM | –
16 | Cn1ncc(NC(=O)c2nc(-c3ccccc3F)cnc2N)c1N1CCC[C@H](N)CC1 [Example 143, (S)-3-amino-N-(5-(4-aminoazepan-1-yl)-1-methyl-1H-pyrazol-4-yl)-6-(2-fluorophenyl)pyrazine-2-carboxamide] | – | – | – | 377 nM | 1.1 µM | –
17 | Cn1ncc(NC(=O)c2nc(-c3ccccc3F)ccc2N)c1N1CCC[C@@H](N)CC1 [Example 145, (R)-3-amino-N-(5-(4-aminoazepan-1-yl)-1-methyl-1H-pyrazol-4-yl)-6-(2-fluorophenyl)picolinamide] | – | – | – | 1000 nM | 3.8 µM | –
